Assay results as given in US20210395262A1, “INHIBITORS OF HUMAN IMMUNODEFICIENCY VIRUS REPLICATION” (ViiV HEALTHCARE UK (NO.5) LIMITED, priority 2018, published 2021).
pEC50: −log10 of the molar value.

Columns and labels:
[1] = Compound cytotoxicity, XTT-based colorimetric assay; assay type: cell-based; conditions: human; uninfected MT2 cells, day 4, XTT; read-out: CC50
Procedure: Compound cytotoxicity and the corresponding CC50 values were determined using the same protocol as described in the antiviral assay except that uninfected cells were used. Cytotoxicity was assessed on day 4 in uninfected MT2 cells by using a XTT (2,3-bis[2-Methoxy-4-nitro-5-sulfophenyl]-2H-tetrazolium-5-carboxyanilide inner salt)-based colorimetric assay (Sigma-Aldrich, St Louis, Mo.).

[2] = tested on: recombinant NL4-3 virus; test: HIV cell culture assay (antiviral activity, luciferase readout in MT-2 cells); assay type: cell-based; conditions: Human immunodeficiency virus 1, NL43, MT2
Procedure: HIV cell culture assay—MT-2 cells, 293T cells and the proviral DNA clone of NL4-3 virus were obtained from the […] AIDS Research and Reference Reagent Program. MT-2 cells were propagated in RPMI 1640 media supplemented with 10% heat inactivated fetal bovine serum (FBS), […] penicillin G and up to 100 units/mL streptomycin. The 293T cells were propagated in DMEM media supplemented with 10% heat inactivated FBS, […] penicillin G and […] streptomycin. A recombinant NL4-3 proviral clone, in which a section of the nef gene was replaced with the Renilla luciferase gene, was used to make the reference virus used in these studies. The recombinant virus was prepared through transfection of the recombinant NL4-3 proviral clone into 293T cells using Transit-293 Transfection Reagent from Mirus Bio LLC (Madison, Wis.). Supernatent was harvested after 2-3 days and the amount of virus present was titered in MT-2 cells using luciferase enzyme activity as a marker by measuring luciferase enzyme activity. Luciferase was quantitated using the EnduRen Live Cell Substrate from Promega (Madison, Wis.). Antiviral activities of compounds toward the recombinant virus were quantified by measuring luciferase activity in MT-2 cells infected for 4-5 days with the recombinant virus in the presence of serial dilutions of the compound.
The 50% effective concentration (EC50) was calculated by using the exponential form of the median effect equation where (Fa)=1/[1+(ED50/drug conc.)m] (Johnson V A, Byington R T. Infectivity Assay. In Techniques in HIV Research. ed. Aldovini A, Walker B D. 71-76. New York: Stockton Press. 1990). The 50% inhibitory concentration (EC50) was calculated by using the exponential form of the median effect equation where percent inhibition=1/[1+(EC50/drug concentration)m], where m is a parameter that reflects the slope of the concentration-response curve.

SMILES | CC50 at 4 days [1] | pEC50 [2]
C[C@@H]1CN(c2ccc3c(=O)n(-c4ccc(Cl)c5c(NS(C)(=O)=O)nn(CC(F)F)c45)c([C@H](Cc4cc(F)cc(F)c4)NC(=O)Cn4nc(C(F)(F)F)c5ccccc54)nc3c2)C[C@H](C)O1 (atropisomer, axis not shown; (P)) [Example 43, N—((S)-1-((3P)-3-(4-chloro-1-(2,2-difluoroethyl)-3-(methylsulfonamido)-1H-indazol-7-yl)-7-((2S,6R)-2,6-dimethylmorpholino)-4-oxo-3,4-dihydroquinazolin-2-yl)-2-(3,5-difluorophenyl)ethyl)-2-(3-(trifluoromethyl)-1H-indazol-1-yl)acetamide] | > 500 nM | 8.92
Cn1nc(NS(C)(=O)=O)c2c(Cl)ccc(-n3c([C@H](Cc4cc(F)cc(F)c4)NC(=O)Cn4nc(C(F)F)c5c4C(F)(F)[C@@H]4C[C@H]54)nc4cc(N5CCS(=O)(=O)CC5)ccc4c3=O)c21 (atropisomer, axis not shown; (P)) [Example 13, N—((S)-1-((3P)-3-(4-chloro-1-methyl-3-(methylsulfonamido)-1H-indazol-7-yl)-7-(1,1-dioxidothiomorpholino)-4-oxo-3,4-dihydroquinazolin-2-yl)-2-(3,5-difluorophenyl)ethyl)-2-((3bS,4aR)-3-(difluoromethyl)-5,5-difluoro-3b,4,4a,5-tetrahydro-1H-cyclopropa[3,4]cyclopenta[1,2-c]pyrazol-1-yl)acetamide] | > 10000 nM | 9.33
Cc1cc(C(F)F)nn1C(C)C(=O)N[C@@H](Cc1cc(F)cc(F)c1)c1nc2cc(N3C[C@@H](C)O[C@@H](C)C3)ccc2c(=O)n1-c1ccc(Cl)c2c(NS(C)(=O)=O)nn(CC(F)F)c12 (stereo partly drawn) [Example 51, N—((S)-1-((3P)-3-(4-chloro-1-(2,2-difluoroethyl)-3-(methylsulfonamido)-1H-indazol-7-yl)-7-((2S,6R)-2,6-dimethylmorpholino)-4-oxo-3,4-dihydroquinazolin-2-yl)-2-(3,5-difluorophenyl)ethyl)-2-(3-(difluoromethyl)-5-methyl-1H-pyrazol-1-yl)propanamide] | > 500 nM | 8.72
Cn1nc(NS(C)(=O)=O)c2c(Cl)ccc(-n3c([C@H](Cc4cc(F)cc(F)c4)NC(=O)Cn4nc(C(F)F)c5c4C(F)(F)[C@@H]4C[C@H]54)nc4cc(N5CCCC5)ccc4c3=O)c21 (atropisomer, axis not shown; (P)) [Example 19, N—((S)-1-((3P)-3-(4-chloro-1-methyl-3-(methylsulfonamido)-1H-indazol-7-yl)-4-oxo-7-(pyrrolidin-1-yl)-3,4-dihydroquinazolin-2-yl)-2-(3,5-difluorophenyl)ethyl)-2-((3bS,4aR)-3-(difluoromethyl)-5,5-difluoro-3b,4,4a,5-tetrahydro-1H-cyclopropa[3,4]cyclopenta[1,2-c]pyrazol-1-yl)acetamide] | > 1000 nM | 9.65
C[C@@H]1CN(c2ccc3c(=O)n(-c4ccc(Cl)c5c(NS(C)(=O)=O)nn(CC(F)F)c45)c([C@H](Cc4cc(F)cc(F)c4)NC(=O)Cn4ccc(C(C)(C)C)n4)nc3c2)C[C@H](C)O1 (atropisomer, axis not shown; (P)) [Example 49, 2-(3-(tert-butyl)-1H-pyrazol-1-yl)-N—((S)-1-((3P)-3-(4-chloro-1-(2,2-difluoroethyl)-3-(methylsulfonamido)-1H-indazol-7-yl)-7-((2S,6R)-2,6-dimethylmorpholino)-4-oxo-3,4-dihydroquinazolin-2-yl)-2-(3,5-difluorophenyl)ethyl)acetamide] | > 500 nM | 8.57
Cn1nc(NS(C)(=O)=O)c2c(Cl)ccc(-n3c([C@H](Cc4cc(F)cc(F)c4)NC(=O)Cn4nc(C(F)F)c5c4C(F)(F)[C@@H]4C[C@H]54)nc4cc(N5CC=CC5)ccc4c3=O)c21 (atropisomer, axis not shown; (P)) [Example 31, N—((S)-1-((3P)-3-(4-chloro-1-methyl-3-(methylsulfonamido)-1H-indazol-7-yl)-7-(2,5-dihydro-1H-pyrrol-1-yl)-4-oxo-3,4-dihydroquinazolin-2-yl)-2-(3,5-difluorophenyl)ethyl)-2-((3bS,4aR)-3-(difluoromethyl)-5,5-difluoro-3b,4,4a,5-tetrahydro-1H-cyclopropa[3,4]cyclopenta[1,2-c]pyrazol-1-yl)acetamide] | > 500 nM | 9.90
COC1CCN(c2ccc3c(=O)n(-c4ccc(Cl)c5c(NS(C)(=O)=O)nn(C)c45)c([C@H](Cc4cc(F)cc(F)c4)NC(=O)Cn4nc(C(F)F)c5c4C(F)(F)[C@@H]4C[C@H]54)nc3c2)CC1 (atropisomer, axis not shown; (P)) [Example 28, N—((S)-1-((3P)-3-(4-chloro-1-methyl-3-(methylsulfonamido)-1H-indazol-7-yl)-7-(4-methoxypiperidin-1-yl)-4-oxo-3,4-dihydroquinazolin-2-yl)-2-(3,5-difluorophenyl)ethyl)-2-((3bS,4aR)-3-(difluoromethyl)-5,5-difluoro-3b,4,4a,5-tetrahydro-1H-cyclopropa[3,4]cyclopenta[1,2-c]pyrazol-1-yl)acetamide] | > 500 nM | 9.92
C[C@@H]1CN(c2ccc3c(=O)n(-c4ccc(Cl)c5c(NS(=O)(=O)C6CC6)nn(CC(F)F)c45)c([C@H](Cc4cc(F)cc(F)c4)NC(=O)Cn4nc(C(F)F)cc4C(F)F)nc3c2)C[C@H](C)O1 (atropisomer, axis not shown; (P)) [Example 38, 2-(3,5-bis(difluoromethyl)-1H-pyrazol-1-yl)-N—((S)-1-((3P)-3-(4-chloro-3-(cyclopropanesulfonamido)-1-(2,2-difluoroethyl)-1H-indazol-7-yl)-7-((2S,6R)-2,6-dimethylmorpholino)-4-oxo-3,4-dihydroquinazolin-2-yl)-2-(3,5-difluorophenyl)ethyl)acetamide] | > 1000 nM | 8.91
C[C@@H]1CN(c2ccc3c(=O)n(-c4ccc(Cl)c5c(NS(C)(=O)=O)nn(CC(F)(F)F)c45)c([C@H](Cc4cc(F)cc(F)c4)NC(=O)Cn4nc(C5CC5)cc4C(F)F)nc3c2)C[C@H](C)O1 (atropisomer, axis not shown; (P)) [Example 60, N—((S)-1-((3P)-3-(4-chloro-3-(methylsulfonamido)-1-(2,2,2-trifluoroethyl)-1H-indazol-7-yl)-7-((2S,6R)-2,6-dimethylmorpholino)-4-oxo-3,4-dihydroquinazolin-2-yl)-2-(3,5-difluorophenyl)ethyl)-2-(3-cyclopropyl-5-(difluoromethyl)-1H-pyrazol-1-yl)acetamide] | > 500 nM | 9.44
C[C@@H]1CN(c2ccc3c(=O)n(-c4ccc(Cl)c5c(NS(C)(=O)=O)nn(C)c45)c([C@H](Cc4cc(F)cc(F)c4)NC(=O)Cn4nc(C(F)F)c5c4C(F)(F)[C@@H]4C[C@H]54)nc3c2)C[C@H](C)O1 (atropisomer, axis not shown; (P)) [Example 15, N—((S)-1-((3P)-3-(4-chloro-1-methyl-3-(methylsulfonamido)-1H-indazol-7-yl)-7-((2S,6R)-2,6-dimethylmorpholino)-4-oxo-3,4-dihydroquinazolin-2-yl)-2-(3,5-difluorophenyl)ethyl)-2-((3bS,4aR)-3-(difluoromethyl)-5,5-difluoro-3b,4,4a,5-tetrahydro-1H-cyclopropa[3,4]cyclopenta[1,2-c]pyrazol-1-yl)acetamide] | > 10000 nM | 10.46
